Results on 21 molecules are retold here after paper PMC2997884 (Molecular pharmaceutics, 2010).

Like-named read-outs stand apart in the source and are kept apart here. Where a SMILES comes first, the peptide text is derived from it. [ ]: non-standard residue; d: D form. The star is where a group is joined. ξ: configuration not given here. pNA = O=[N+]([O-])c1ccc(N*)cc1; ξP = O=C(O)C1CCCN1

Data set [1] can be described thus: Hydrolysis in pH 7.4 HEPES buffer. Format: physicochemical. The note with it: for t1/2 (estimated half-life): pH 7.4 HEPES buffer, 37 °C, mean ± SEM, esters n=3, Val-3-APG n=1 (up to 800 h).
The target in data set [2] is T1, hVACVase (Homo sapiens, UniProt Q86WA6).
T1 sequence (Q86WA6 38-291): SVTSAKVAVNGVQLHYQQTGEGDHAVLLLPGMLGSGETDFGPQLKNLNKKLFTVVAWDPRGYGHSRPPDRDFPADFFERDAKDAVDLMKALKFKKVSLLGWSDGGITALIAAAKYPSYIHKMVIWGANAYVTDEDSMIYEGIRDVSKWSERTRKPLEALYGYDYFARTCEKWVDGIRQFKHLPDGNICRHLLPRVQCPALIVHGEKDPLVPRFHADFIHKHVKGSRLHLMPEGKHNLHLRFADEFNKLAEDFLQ
Briefly: hVACVase-mediated hydrolysis. The note with it: 50 mM HEPES pH 7.4, 37°C, 6×His-tagged hVACVase for Val-3-APG; for kcat: calculated from Vmax/[enzyme]0; for Km / Vmax: mean ± SEM, Phe-OMe n=2, others n=3.

The target of data set [3] is T1, hVACVase. The note with it: cited from earlier work; for Vmax / Km: hVACVase; for specific activity: hVACVase substrate.
The test system of another data set is chymotrypsin. The note with it: N-acetyltryptophanyl-X substrates of chymotrypsin; ref Bender and Kezdy[14]; cited from earlier work.
The target of data set [4] is T1, hVACVase. Conditions: hVACVase-mediated hydrolysis; previously published; ref Sun et al.[12]; cited from earlier work.

As usually defined, the kcat is the number of substrate molecules converted per active site and unit of time at saturation. Usually Km stands for the concentration of substrate that gives half-maximal velocity. On to `Br.CC(C)[C@H](N)C(=O)OCc1ccc([N+](=O)[O-])cc1` [valine p-nitrobenzyl ester, L-Valine p-nitrobenzyl ester hydrobromide], for which the “t1/2 (estimated half-life)” value in data set [1] is listed as 412.3 ± 11.9 min. In addition, at hVACVase [2], the kcat is 130 ± 2 s⁻¹, the Km was 14 ± 1 µM and the Vmax turned out to be 272 ± 3 nmol/min/µg.

In the case of `CC(C)(C)OC(=O)[C@@H](N)Cc1ccccc1` [phenylalanine t-butyl ester], the “hVACVase substrate or not” value at hVACVase [3] is “not a substrate”.

`CC(C)C(N)C(=O)OC1CC(n2cc(F)c(=O)[nH]c2=O)OC1CO` (stereo not shown) [valine 3’-floxuridine ester]: the Vmax on hVACVase [3] is 33 nmol/min/µg.

For `NCCCC[C@H](N)C(=O)Nc1ccc([N+](=O)[O-])cc1` [Lys-p-NA], the “hydrolytic activity of hVACVase toward amides” value (“hydrolytic activity” below) at hVACVase [3] is “does not exhibit significant hydrolytic activity”.

On to `COC(=O)[C@H](Cc1c[nH]c2ccccc12)NC(C)=O` [-OMe], for which, in the data set on chymotrypsin, the Km was 95 µM and the kcat was 0.462 s⁻¹.

As usually defined, the half-life is the time needed for the level to fall by half in the phase considered. As to `CC(C)[C@H](N)C(=O)OCCOCn1cnc2c(=O)[nH]c(N)nc21` [valacyclovir], the half-life in data set [1] (HEPES buffer, pH 7.4) was 742.1 ± 5.5 min. For the same molecule, on hVACVase [4], the Km is 68 ± 4 µM, the Vmax was 120 ± 2 nmol/min/µg and the kcat was 58 ± 1 s⁻¹. On hVACVase [3], the Km is 0.19 mM.

As for `CC(C)[C@H](N)C(=O)OCc1ccccc1.Cl` [Val-OBn, L-valine benzyl ester hydrochloride], the “t1/2 (estimated half-life)” value in data set [1] is reported as 857.8 ± 7.6 min. Further, on hVACVase [2], the kcat was 60 ± 3 s⁻¹, the Michaelis constant (Km) is 60 ± 15 µM and the Vmax amounted to 125 ± 7 nmol/min/µg.

As to `CC(C)C(N)C(=O)OCc1cccc(NC(=N)N)c1` (stereo not shown) [Val-3-HPG], the “t1/2 (estimated half-life)” value in data set [1] is listed as 486.9 ± 6.6 min. On hVACVase [4], the Km was 46 ± 5 µM, the Vmax is 321 ± 9 nmol/min/µg and the turnover number (kcat) is 154 ± 4 s⁻¹.

In the case of `CC(C)[C@H](N)C(=O)OCC(CO)OCn1cnc2c(=O)nc(N)[nH]c21` (stereo partly shown) [valganciclovir], on hVACVase [3], the Km is 1.9 mM.

As for `CC(C)C(N)C(=O)OCC1OC(n2cc(F)c(=O)[nH]c2=O)CC1O` (stereo not shown) [valine 5’-floxuridine], the Vmax at hVACVase [3] is 148 nmol/min/µg.

Regarding `Cl.N[C@@H](Cc1ccccc1)C(=O)OCc1ccccc1` [Phe-OBn, L-phenylalanine benzyl ester hydrochloride], the “t1/2 (estimated half-life)” value in data set [1] is given as 365.0 ± 9.4 min. On hVACVase [2], the kcat is 395 ± 26 s⁻¹, the Km was 99 ± 26 µM and the Vmax turned out to be 822 ± 54 nmol/min/µg. Moreover, the specific activity on hVACVase [3] was 358.3 units/mg.

For `CC(C)[C@H](N)C(=O)Nc1ccc([N+](=O)[O-])cc1` [Val-p-NA], the “hydrolytic activity” value on hVACVase [3] was “does not exhibit significant hydrolytic activity”.

With `CC(C)C[C@H](N)C(=O)Nc1ccc([N+](=O)[O-])cc1` [Leu-p-NA], the “hydrolytic activity” value at hVACVase [3] is “does not exhibit significant hydrolytic activity”.

Take `CC(=O)N[C@@H](Cc1c[nH]c2ccccc12)C(=O)Oc1ccc([N+](=O)[O-])cc1` [-OPNP]: in the data set with chymotrypsin, the Km was 2 µM and the kcat was 0.508 s⁻¹.

As to `CC(=O)N[C@@H](Cc1c[nH]c2ccccc12)C(N)=O` [-NH2], in the data set with chymotrypsin, the Km was 5000 µM and the kcat is 0.0006 s⁻¹.

On to `O=C(Nc1ccc([N+](=O)[O-])cc1)[C@@H]1CCCN1` [Pro-p-NA], for which the “hydrolytic activity” value at hVACVase [3] is reported as “does not exhibit significant hydrolytic activity”.

For the molecule `N=C(N)Nc1cccc(COC(=O)[C@@H](N)Cc2ccccc2)c1` [Phe-3-HPG], the “t1/2 (estimated half-life)” value in data set [1] is 230.0 ± 6.5 min. Also, on hVACVase [4], the Michaelis-Menten constant (Km) is 207 ± 16 µM, the Vmax was 718 ± 16 nmol/min/µg and the kcat is 345 ± 8 s⁻¹.

With `CCOC(=O)[C@H](Cc1c[nH]c2ccccc12)NC(C)=O` [-OEt], in the data set on chymotrypsin, the Km is 97 µM and the kcat is 0.448 s⁻¹.

In the case of `CCOC(=O)[C@@H](N)Cc1ccccc1.Cl` [Phe-OEt, L-phenylalanine ethyl ester hydrochloride], in data set [1], the “t1/2 (estimated half-life)” value was 1006.4 ± 26.0 min. Also, at hVACVase [2], the kcat was 93 ± 4 s⁻¹, the Km amounted to 6700 ± 560 µM and the Vmax was determined as 193 ± 8 nmol/min/µg. In addition, the specific activity at hVACVase [3] is on record as 75.3 units/mg.

`N[C@@H](Cc1ccccc1)C(=O)Nc1ccc([N+](=O)[O-])cc1` [Phe-p-NA]: the “hydrolytic activity” value on hVACVase [3] is “does not exhibit significant hydrolytic activity”.

Regarding `NCC(=O)N1CCCC1C(=O)Nc1ccc([N+](=O)[O-])cc1` (stereo not drawn) [Gly-Pro-p-NA] (H-Gly-[ξP]-pNA), the “hydrolytic activity” value at hVACVase [3] was “does not exhibit significant hydrolytic activity”.
